This is an account of results in patent US20210315799A1, “Composition for Promoting Differentiation or Proliferation of Human Adipose-Derived Stem Cell” (LG Household & Health Care Ltd., priority 2018, published 2021).

Holding throughout (assay type): cell-based
The test system of assay [1] is human adipose-derived stem cells. In words: Cell activity / proliferation by CCK-8 kit (Example 6). Particulars: for cell activity rates / proliferation of human adipose-derived stem cells compared to a control: FIG. 6; for concentration at which the substance showed the highest cell activity: tested at 0.2 ppm, 2 ppm and 20 ppm. In general terms: Formazan colour is commonly taken as a measure of viable cells.

Assay [2] has the same test system. In words: Quantified differentiation: eluted Oil Red O, absorbance at 490 nm (Example 3). Particulars: Oil Red O eluted with isopropanol, absorbance 490 nm; compared with negative control (differentiation medium only); FIG. 2. As to the method:
(§1) Human adipose-derived stem cells were purchased from Lonza, Inc. (Walkersvile, Md., USA) and cultured according to guidelines of Lonza, Inc. Differentiation into adipose cells was evaluated using a differentiation medium recommended by Lonza, Inc. As a positive control, the cells were treated with 1 μM rosiglitazone together with the differentiation medium. In order to induce differentiation of human adipose-derived stem cells into adipose cells, a cell culture solution was removed at 3 to 5 days after cell culturing was initiated, and the cells were treated with formononetin, acetyl mandelic acid, Magnoliae cortex extract, and the positive control for 14 days.
(§2) At 14 days after differentiation was initiated, the cell culture solution was removed, and the cells were washed with a phosphate buffer (DPBS) and immobilized using 10% formalin. The immobilized cells were observed using a microscope after staining fats and lipids contained in the adipose cells with Oil Red 0.
Cultured human adipose-derived stem cells were treated with 12 types of the compounds including formononetin and a Magnoliae cortex extract and an Aloe vera extract in the same manner as in Example 2. Stained Oil Red 0 was eluted using a 100% isopropanol solution, and absorbance thereof was measured at a wavelength of 490 nm and quantified. […] It was confirmed that the substances according to the present invention promoted differentiation of human adipose-derived stem cells into adipose cells and effectively promoted differentiation into adipose cells compared to non-differentiation substances such as kaempferol. Thus, the compositions including the substances according to the present invention may be used for anti-aging purposes to enhance skin elasticity and reduce skin wrinkles by promoting differentiation of human adipose-derived stem cells and increasing the number of subcutaneous fat cells.

Assay [3] shares this test system. In words: Oil Red O staining of differentiated adipose cells, observed by microscope (Example 2). Particulars: treated 14 days; compared with negative control treated only with differentiation medium; FIG. 1. As to the method: as §1, §2

As for `O=C(O)CCCC[C@@H]1CCSS1` (racemic) [thioctic acid], in assay [1], the “cell activity rates / proliferation of human adipose-derived stem cells compared to a control” value is reported as “significantly increased” and the “concentration at which the substance showed the highest cell activity” value (“concentration” below) worked out at 20 ppm. `CC(=O)OC(C(=O)O)c1ccccc1` (stereo not shown) [acetyl mandelic acid, O-acetyl mandelic acid]: in assay [2], the “relative differentiation rate of human adipose-derived stem cells into adipose cells” value (“relative differentiation rate” below) is on record as “effectively promote differentiation”. Also, the “effects on differentiation of human adipose-derived stem cells into adipose cells (Oil Red O staining)” value in assay [3] was “superior to those of the negative control”. As for `O=C(O)/C=C/c1ccc(O)c(O)c1` [caffeic acid], in assay [1], the “cell activity rates / proliferation of human adipose-derived stem cells compared to a control” value was “significantly increased” and the “concentration” value is 20 ppm. For the same molecule, in assay [2], the “relative differentiation rate” value was “effectively promote differentiation”. For `CC(C)c1cc2c(c(O)c1O)[C@@]1(C(=O)O)CCCC(C)(C)[C@@H]1CC2` [carnosic acid], in assay [1], the “cell activity rates / proliferation of human adipose-derived stem cells compared to a control” value was “significantly increased” and the “concentration” value amounted to 2 ppm. Moreover, the “relative differentiation rate” value in assay [2] is reported as “effectively promote differentiation”. `Cc1cc(O)c2c(c1)C(=O)c1cc(O)cc(O)c1C2=O` [emodin]: the “relative differentiation rate” value in assay [2] is given as “effectively promote differentiation”. For the molecule `COc1ccc(-c2coc3cc(O)ccc3c2=O)cc1` [formononetin], the “relative differentiation rate” value in assay [2] is reported as “effectively promote differentiation”. For the same molecule, the “effects on differentiation of human adipose-derived stem cells into adipose cells (Oil Red O staining)” value in assay [3] was “superior to those of the negative control”.

On to `O=C(O)c1cc(O)c(O)c(O)c1` [gallic acid], for which, in assay [1], the “cell activity rates / proliferation of human adipose-derived stem cells compared to a control” value is “significantly increased” and the “concentration” value is on record as 20 ppm. As to `CC1(C)[C@@H](O)CC[C@]2(C)[C@H]3C(=O)C=C4[C@@H]5C[C@@](C)(C(=O)O)CC[C@]5(C)CC[C@@]4(C)[C@]3(C)CC[C@@H]12` [glycyrrhetinic acid], in assay [1], the “cell activity rates / proliferation of human adipose-derived stem cells compared to a control” value is reported as “significantly increased” and the “concentration” value is listed as 20 ppm. Take `O=C(O)/C=C/c1cccc(O)c1` [hydroxycinnamic acid, m-coumaric acid]: in assay [2], the “relative differentiation rate” value is recorded as “effectively promote differentiation”.

Consider `O=c1c(O)c(-c2ccc(O)cc2)oc2cc(O)cc(O)c12` [kaempferol, reference compound], for which the “relative differentiation rate” value in assay [2] is “non-differentiation”.

Take `Cc1cc2nc3c(=O)[nH]c(=O)nc-3n(C[C@H](O)[C@H](O)[C@H](O)CO)c2cc1C` [lactoflavin, riboflavin]: in assay [1], the “cell activity rates / proliferation of human adipose-derived stem cells compared to a control” value is “significantly increased” and the “concentration” value came to 20 ppm. For `CC(C)=CCC[C@@H](C)[C@H]1CC[C@@]2(C)C3=C(CC[C@]12C)[C@@]1(C)CC[C@H](O)C(C)(C)[C@@H]1CC3` [lanosterol], in assay [1], the “cell activity rates / proliferation of human adipose-derived stem cells compared to a control” value was “significantly increased” and the “concentration” value came to 2 ppm.

In the case of `CC1=CC(=O)c2ccccc2C1=O` [menadione], in assay [1], the “cell activity rates / proliferation of human adipose-derived stem cells compared to a control” value is reported as “significantly increased” and the “concentration” value is recorded as 0.2 ppm.

`CCCCCCCCCCCCCCCC(N)=O` [palmitamide]: the “relative differentiation rate” value in assay [2] is given as “effectively promote differentiation”.

For the molecule `CC(=O)CCc1ccc(O)cc1` [raspberry ketone], in assay [1], the “cell activity rates / proliferation of human adipose-derived stem cells compared to a control” value is “significantly increased” and the “concentration” value was found to be 20 ppm.

On to `Cc1cc(S(=O)(=O)[O-])c2c(C)ccc(C(C)C)cc1-2.[Na+]` [sodium guaiazulene sulfonate], for which the “relative differentiation rate” value in assay [2] was “effectively promote differentiation”. Consider `Cc1cc2nc3c(=O)[nH]c(=O)nc-3n(C[C@H](O)[C@H](O)[C@H](O)COP(=O)([O-])O)c2cc1C.[Na+]` [sodium riboflavin phosphate], for which, in assay [1], the “cell activity rates / proliferation of human adipose-derived stem cells compared to a control” value is given as “significantly increased” and the “concentration” value was determined as 20 ppm. For `O=c1cccccc1O` [tropolone], in that order: “significantly increased” and 2 ppm. Regarding `COC1=C(OC)C(=O)C(C/C=C(\C)CC/C=C(\C)CC/C=C(\C)CC/C=C(\C)CC/C=C(\C)CC/C=C(\C)CC/C=C(\C)CC/C=C(\C)CC/C=C(\C)CCC=C(C)C)=C(C)C1=O` [ubiquinone, ubiquinone 10], in assay [2], the “relative differentiation rate” value is recorded as “effectively promote differentiation”. With `CC1=C[C@H](O)CC(C)(C)[C@H]1/C=C/C(C)=C/C=C/C(C)=C/C=C/C=C(C)/C=C/C=C(C)/C=C/C1=C(C)C[C@@H](O)CC1(C)C` [xanthophyll, lutein], in assay [1], the “cell activity rates / proliferation of human adipose-derived stem cells compared to a control” value was “significantly increased” and the “concentration” value worked out at 20 ppm. Also, the “relative differentiation rate” value in assay [2] was “effectively promote differentiation”. In the case of laccaic acid, in assay [2], the “relative differentiation rate” value was “effectively promote differentiation”. With terpineol, in assay [1], the “cell activity rates / proliferation of human adipose-derived stem cells compared to a control” value is “significantly increased” and the “concentration” value is reported as 20 ppm.
